According to patent publication US20080267882A1, “Imaging compounds, methods of making imaging compounds, methods of imaging, therapeutic compounds, methods of making therapeutic compounds, and methods of therapy” (Stanford University, priority 2007, published 2008):
Each block holds one compound with its values, some of them ahead of it.

Legend:
in vivo [1] = settings: female, athymic nude, mouse, total radioactivity
Procedure: (§1) All mice were sacrificed and dissected at 20 h post-injection (p.i.) of the tracer. Blood, U87MG tumor, major organs and tissues were collected and wet weighed. The radioactivity in the tissue was measured using a γ-counter (Packard). The results were presented as percentage injected dose per gram of tissue (% ID/g).

in vivo [2] = settings: mouse, iv, total radioactivity
Procedure: (§2) PET scans and image analysis were performed using a microPET R4 rodent model scanner (Siemens Medical Solutions) as previously reported (J Nucl Med 2006;47:113-121 and J Nucl Med 2005;46:1707-1718, each of which is incorporated herein by reference for the corresponding discussion). Each mouse was tail-vein injected with about 3.7 MBq (100 μCi) of ^18F-FPRGD2 under isoflurane anesthesia. The 30-min dynamic scan (1×30 s, 4×1 min, 1×1.5 min, 4×2 min, 1×2.5 min, 4×3 min, total of 15 frames) was started 1 min after injection. Five min static PET images were also acquired at 1 h and 2 h post-injection (p.i.). The images were reconstructed by a 2-dimensional ordered-subsets expectation maximum (OSEM) algorithm and no correction was applied for attenuation or scatter.
(§3) PET scans and image analysis were performed using a microPET R4 rodent model scanner (Siemens Medical Solutions) as previously reported. For U87MG tumor model, mice (n=3) were tail-vein injected with about 3.7 MBq (100 μCi) of ^18F-FPRGD4 under isoflurane anesthesia and then subjected to a 30-min dynamic scan (1×30 s, 4×1 min, 1×1.5 min, 4×2 min, 1×2.5 min, 4×3 min, total of 15 frames) starting from 1 min p.i. Five min static PET images were also acquired at 1, 2, and 3 h p.i. The images were reconstructed by 2-dimensional ordered-subsets expectation maximum (OSEM) algorithm. No attenuation or scatter correction was applied. […] The 5-min static PET scans was then acquired at 30 min and 1 h p.i. Multiple time point static scans were also obtained for orthotopic MDA-MB-435, c-neu oncomouse, and subcutaneous DU145 tumor models after tail-vein injected with 3.7 MBq of ^18F-FPRGD4.
(§4) For each microPET scan, regions of interest (ROIs) were drawn over the tumor, normal tissue, and major organs by using vendor software (ASI Pro 5.2.4.0) on decay-corrected whole-body coronal images. The maximum radioactivity concentration (accumulation) within a tumor or an organ was obtained from mean pixel values within the multiple ROI volume, which were converted to counts/mL/min by using a conversion factor. Assuming a tissue density of 1 g/mL, the ROIs were converted to counts/g/min and then divided by the administered activity to obtain an imaging ROI-derived % ID/g. […]
(§5) PET scans and image analysis were performed using a microPET R4 rodent model scanner (Siemens Medical Solutions) as previously reported (J Nucl Med. 2005;46:1707-1718 and J Nucl Med. 2006;47:113-121, each of which is incorporated herein by reference for the corresponding discussion). About 9.3 MBq of ^64Cu-DOTA-RGD multimer was intravenously injected into each mouse under isoflurane anesthesia. Five minute static scans were acquired at 30 min, 1 h, 2 h, 6 h, and 20 h p.i. The images were reconstructed by a 2-dimensional ordered-subsets expectation maximum (OSEM) algorithm and no correction was applied for attenuation and scatter. For each microPET scan, regions of interest (ROIs) were drawn over the tumor, normal tissue, and major organs on decay-corrected whole-body coronal images. The radioactivity concentration (accumulation) within a tumor was obtained from the maximum value within the multiple ROIs and then converted to % ID/g.
(§6) PET scans and image analysis were performed using a microPET R4 rodent model scanner (Siemens Medical Solutions) as previously reported (J Nucl Med. 2006;47:113-21 and J Nucl Med. 2005;46:1707-18, which is incorporated herein by reference for the corresponding discussion). […] The 60-min dynamic scan (5×1 min, 10×3 min, 5×5 min, total of 20 frames) was started 1 min after injection. A 2 h time point static scan was also acquired after the 60 min dynamic scan. Five min static PET images were also acquired separately at 30 min, 1 h and 2 h time points post-injection (p.i.) for another set of tumor-bearing mice (n=3/tracer). The images were reconstructed by a 2-dimensional ordered-subsets expectation maximum (OSEM) algorithm and no correction was necessary for attenuation or scatter correction. […]

in vivo [3] = settings: c-neu oncomouse (MMTV/c-neu transgenic), mouse, iv, total radioactivity
Procedure: All animal experiments were performed under a protocol approved by Stanford's Administrative Panel on Laboratory Animal Care. […] The c-neu oncomouse (Charles River Laboratories, Charles River, Canada) is a spontaneous tumor-bearing model that carries an activated c-neu oncogene driven by a mouse mammary tumor virus (MMTV) promoter (Cell 1988;54:105-115, which is incorporated herein by reference for the corresponding discussion). Transgenic mice uniformly expressing the MMTV/c-neu gene develop mammary adenocarcinomas between 4 and 8 months postpartum that involve the entire epithelium in each gland. […] Each mouse was tail-vein injected with about 3.7 MBq (100 μCi) of ^18[…]2 under isoflurane anesthesia. The 30-min dynamic scan (1×30 s, 4×1 min, 1×1.5 min, 4×2 min, 1×2.5 min, 4×3 min, total of 15 frames) was started 1 min after injection. Five min static PET images were also acquired at 1 h and 2 h post-injection (p.i.). The images were reconstructed by a 2-dimensional ordered-subsets expectation maximum (OSEM) algorithm and no correction was applied for attenuation or scatter. […] Animal procedures were performed according to a protocol approved by the Stanford University Institutional Animal Care and Use Committee. […] The c-neu oncomouse (Charles River Laboratories, Charles River, Canada) is a spontaneous tumor-bearing model that carries an activated c-neu oncogene driven by a mouse mammary tumor virus (MMTV) promoter (Cell. 1988;54:105-115, which is incorporated herein by reference for the corresponding discussion). Transgenic mice uniformly expressing the MMTV/c-neu gene develop mammary adenocarcinomas between 4 and 8 months postpartum that involve the entire epithelium in each gland. […] PET scans and image analysis were performed using a microPET R4 rodent model scanner (Siemens Medical Solutions) as previously reported. […] Five min static PET images were also acquired at 1, 2, and 3 h p.i. The images were reconstructed by 2-dimensional ordered-subsets expectation maximum (OSEM) algorithm. No attenuation or scatter correction was applied. […] The 5-min static PET scans was then acquired at 30 min and 1 h p.i. […] Animal procedures were performed according to a protocol approved by Stanford University Institutional Animal Care and Use Committee. […] Transgenic mice uniformly expressing the MMTV/c-neu gene develop mammary adenocarcinomas (4 to 8 months postpartum) that involve the entire epithelium in each gland. […] Five minute static scans were acquired at 30 min, 1 h, 2 h, 6 h, and 20 h p.i. […] The radioactivity concentration (accumulation) within a tumor was obtained from the maximum value within the multiple ROIs and then converted to % ID/g.

U87MG tumor-bearing mice = test: in vivo; settings: athymic nude, mouse, iv, 3.7 MBq, 1 h
Procedure: as §2, §3, §4, §5, §6

in vivo [4] = settings: female, nude, mouse, total radioactivity
Procedure: as §1, with “1” for “20”, “after injection” for “post-injection (p.i.)”, “Blood,” for “Blood, U87MG”

[5] = female, athymic nude, 10 mg/kg, U87MG tumor uptake with blocking
[6] = female, athymic nude, 9.3 MBq, U87MG tumor uptake
[7] = female, athymic nude, U87MG tumor uptake
[8] = athymic nude, 3.7 MBq, U87MG tumor uptake
[9] = nude, 3.7 MBq, U87MG tumor uptake

tissue uptake at 20 h (in vivo [1]): 27 ± 3.5 %ID/g | tissue uptake at 2 h (in vivo [2]; [5]): 1.7 ± 0.2 %ID/g | tissue uptake at 6 h (in vivo [2]; [6]): 10.5 ± 0.7 %ID/g | tissue uptake at 20 h (in vivo [2]; [6]): 10.3 ± 1 %ID/g | tissue uptake at 0.5 h (in vivo [2]; [7]): 11.7 ± 0.7 %ID/g | tissue uptake at 1 h (in vivo [2]; [7]): 10.6 ± 0.7 %ID/g | tissue uptake at 2 h (in vivo [2]; [7]): 10.6 ± 0.3 %ID/g | tissue uptake at 20 h (in vivo [3]; 9.3 MBq): 6.6 ± 1.5 %ID/g | tissue uptake at 1 h (in vivo [3]): 8.9 ± 2.1 %ID/g
Compound: N=C(N)NCCC[C@@H]1NC(=O)[C@H](CCCCNC(=O)CC[C@H](NC(=O)CC[C@H](NC(=O)CC[C@H](NC(=O)CN2CCN(CC(=O)O)CCN(CC(=O)O)CCN(CC(=O)O)CC2)C(=O)N[C@@H](CCC(=O)N[C@@H](CCC(=O)NCCCC[C@@H]2NC(=O)[C@@H](Cc3ccc(O)cc3)NC(=O)[C@H](CC(=O)O)NC(=O)CNC(=O)[C@H](CCCNC(=N)N)NC2=O)C(=O)NCCCC[C@@H]2NC(=O)[C@@H](Cc3ccc(O)cc3)NC(=O)[C@H](CC(=O)O)NC(=O)CNC(=O)[C@H](CCCNC(=N)N)NC2=O)C(=O)N[C@@H](CCC(=O)NCCCC[C@@H]2NC(=O)[C@@H](Cc3ccc(O)cc3)NC(=O)[C@H](CC(=O)O)NC(=O)CNC(=O)[C@H](CCCNC(=N)N)NC2=O)C(=O)NCCCC[C@@H]2NC(=O)[C@@H](Cc3ccc(O)cc3)NC(=O)[C@H](CC(=O)O)NC(=O)CNC(=O)[C@H](CCCNC(=N)N)NC2=O)C(=O)N[C@@H](CCC(=O)NCCCC[C@@H]2NC(=O)[C@@H](Cc3ccc(O)cc3)NC(=O)[C@H](CC(=O)O)NC(=O)CNC(=O)[C@H](CCCNC(=N)N)NC2=O)C(=O)NCCCC[C@@H]2NC(=O)[C@@H](Cc3ccc(O)cc3)NC(=O)[C@H](CC(=O)O)NC(=O)CNC(=O)[C@H](CCCNC(=N)N)NC2=O)C(=O)NCCCC[C@@H]2NC(=O)[C@@H](Cc3ccc(O)cc3)NC(=O)[C@H](CC(=O)O)NC(=O)CNC(=O)[C@H](CCCNC(=N)N)NC2=O)NC(=O)[C@@H](Cc2ccc(O)cc2)NC(=O)[C@H](CC(=O)O)NC(=O)CNC1=O [^64Cu-DOTA-RGD octamer, metal not drawn]

tissue uptake at 0.5 h (in vivo [2]; [8]): 2.6 ± 0.2 %ID/g | tissue uptake at 1 h (in vivo [2]; [8]): 2.8 ± 0.11 %ID/g | tissue uptake at 2 h (in vivo [2]; [8]): 1.7 ± 0.1 %ID/g | tissue uptake at 1 h (in vivo [2]; athymic nude, 3.7 MBq, kidney uptake): 2 %ID/g | tissue uptake at 1 h (in vivo [2]; [5]): 0.31 ± 0.02 %ID/g | tissue uptake at 5 min (in vivo [2]; [9]): 4.39 %ID/g | tissue uptake at 0.25 h (in vivo [2]; [9]): 3.46 %ID/g | tissue uptake at 0.5 h (in vivo [2]; [9]): 2.79 %ID/g | tissue uptake at 1 h (in vivo [2]; [9]): 2.34 %ID/g | tissue uptake at 2 h (in vivo [2]; [9]): 1.89 %ID/g | tissue uptake at 1 h (in vivo [2]; nude, 3.7 MBq, kidney uptake): 4.6 %ID/g | U87MG tumor uptake (U87MG tumor-bearing mice): 2.2±0.1 % ID/g | tissue uptake at 1 h (in vivo [4]; 10 mg/kg, tumor uptake with blocking): 0.21 ± 0.03 %ID/g | tissue uptake at 1 h (in vivo [4]; 3.7 MBq, kidney uptake): 4.3 ± 0.25 %ID/g | tissue uptake at 1 h (in vivo [4]; 3.7 MBq, tumor uptake): 3.82 ± 0.7 %ID/g | tissue uptake at 1 h (in vivo [4]; 3.7 MBq, uptake values in the other major organs): ≤ 1 %ID/g
Compound: N=C(N)NCCC[C@@H]1NC(=O)[C@H](CCCCNC(=O)CC[C@H](NC(=S)Nc2ccc(C[C@H]3CN(CC(=O)O)CCN(CC(=O)O)CCN3CC(=O)O)cc2)C(=O)NCCCC[C@@H]2NC(=O)[C@@H](Cc3ccc(O)cc3)NC(=O)[C@H](CC(=O)O)NC(=O)CNC(=O)[C@H](CCCNC(=N)N)NC2=O)NC(=O)[C@@H](Cc2ccc(O)cc2)NC(=O)[C@H](CC(=O)O)NC(=O)CNC1=O [^68Ga-NOTA-RGD2, metal not drawn]
